Data on five compounds can be found in PMC6767236, “Selective Cannabinoid 2 Receptor Agonists as Potential Therapeutic Drugs for the Treatment of Endotoxin-Induced Uveitis” (Molecules, 2019).

Series [1] is described as follows: Octanol/water distribution coefficient (logD).
Series [2] has as its target T1, human CB2R (Homo sapiens, UniProt P34972).
T1 construct: bgal (beta-galactosidase fragment of the PathHunter system, named only in the cell line's name); host or cells: CHO-K1 (CHOK1hCB2_bgal)
Nature of the series: cAMP assay, CHO cells expressing human CB2R. Type of series: cell-based. The method, then:
The effect of ligands on the forskolin-stimulated accumulation of cAMP was determined using the LANCE ULTRA cAMP kit as per the manufacturer’s instruction (Perkin-Elmer Life Sciences, Boston, MA, USA).
For human CB2R and CB1R, cAMP assays were performed using CHO cells stably expressing human CB2R or human CB1R (DiscoveRx, Fremont, CA, USA) using a cAMP-Nano-TRF detection kit (Roche Diagnostics, Penzberg, Germany). Cells were seeded 17–24 h prior to the experiment at a density of 3 × 10^4 cells per well in a black 96-well plate with clear flat bottom (Corning, Wiesbaden, Germany) and incubated in 5% CO2 at 37 °C in a humidified incubator. The growth medium was exchanged with Krebs Ringer bicarbonate buffer with 1 mmol/L 3-isobutyl-1-methylxanthine (IBMX), 0.1% fatty acid-free BSA and incubated at 30 °C for 60 min. Agonist was added to a final assay volume of 100 μL and the mixture was incubated for 30 min at 30 °C. The assay was stopped by the addition of 50 μL 3 × lysis reagent and shaken for 2 h at room temperature. The time-resolved fluorescence energy transfer was measured using an LF502 Nanoscan FLT (IOM, Berlin, Germany), equipped with a laser as excitation source. cAMP content was determined from the function of a standard curve spanning from 10 to 0.13 nmol/L cAMP. Efficacies are expressed as percent relative to 1 µM CP55940.
On the technique in general: Changes in cAMP serve as a functional read-out for many G protein-coupled receptors.

Series [3] addresses mouse CB2R (Mus musculus, UniProt P47936). Also on record: bgal (beta-galactosidase fragment of the PathHunter system, named only in the cell line's name); host or cells: CHO-K1 (CHOK1mCB2_bgal). Conditions: [3H]-CP55940 displacement; * previously published; cited from earlier work.
The nature of series [4]: Kinetic lyophilization solubility assay. Type of series: physicochemical. Conditions: 0.05 M phosphate buffer, aqueous buffer, thermodynamic from solid; phosphate buffer pH 6.5. The method, then:
The X-ray structure of CB2R complexed with the antagonist AM10257 (5zty) was used as a template to dock CB2R ligands. The docking experiments were performed with the software GOLD ([…]) with default settings. The best 10 docking poses for each compound were energy-minimized within the binding pocket using MOE ( molecular operating environment ver. 2014.09, Chemical Computing Group, Montreal, Canada) and examined visually to select the most reasonable docking mode with respect to molecular interactions and internal conformational strain. The final selection was based on checking consiste ncy with the available structure –activity relationship information.
Kinetic Lyophilization Solubility Assay
The solubility of a test compound in phosphate buffer at pH 6.5 from evaporated DMSO stock solution is measured over time, resulting in the kinetic solubility of the compound. Samples were prepared in duplicate from 10 mM DMSO stock solutions. […] The filtrate and its 1 :10 dilution were analyzed by direct UV measurement or by HPLC -UV. […]
Approximately 8.6 mg test compound per milliliter solvent/vehicle was stirred in HPLC vials (9 × 12 × 32 mm, Waters) at 350 rpm for 15 h. […] Addition of solid material was repeated up to 96 h or until residual solid particles could be detected. […] The filtrates were diluted in ethanol and analyzed for content by UPLC. […]

In brackets after ≈: the same amount, converted by molar mass. Like-named read-outs stand apart in the source and are kept apart here.

Chain of mouse CB2R (P47936 whole entry, the tested form may be a part): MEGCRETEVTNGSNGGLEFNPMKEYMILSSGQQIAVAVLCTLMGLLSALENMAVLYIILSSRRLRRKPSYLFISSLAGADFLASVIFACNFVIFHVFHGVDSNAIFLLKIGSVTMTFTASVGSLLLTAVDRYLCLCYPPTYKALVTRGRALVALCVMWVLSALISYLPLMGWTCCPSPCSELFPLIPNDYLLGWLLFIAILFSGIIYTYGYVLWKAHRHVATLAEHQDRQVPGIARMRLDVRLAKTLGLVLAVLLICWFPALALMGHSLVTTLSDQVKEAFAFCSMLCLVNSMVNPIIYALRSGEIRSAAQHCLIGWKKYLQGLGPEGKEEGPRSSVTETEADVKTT
T1 sequence (P34972 whole entry, the tested form may be a part): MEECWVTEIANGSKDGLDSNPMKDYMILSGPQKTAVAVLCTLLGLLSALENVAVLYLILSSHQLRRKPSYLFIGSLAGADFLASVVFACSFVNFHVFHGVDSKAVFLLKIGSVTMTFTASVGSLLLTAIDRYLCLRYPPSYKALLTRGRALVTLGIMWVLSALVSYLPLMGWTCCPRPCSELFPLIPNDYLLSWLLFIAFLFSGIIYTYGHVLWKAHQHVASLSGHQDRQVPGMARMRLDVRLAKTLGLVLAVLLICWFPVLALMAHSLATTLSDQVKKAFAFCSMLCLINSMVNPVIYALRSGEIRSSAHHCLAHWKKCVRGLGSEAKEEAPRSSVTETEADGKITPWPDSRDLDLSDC

As a reminder, the logD is lipophilicity at a set pH, counting ionised and neutral species. Read a low logD as lower lipophilicity. With `CCCCCCC(C)(C)c1cc(OC)c([C@H]2C=C(CO)[C@H]3C[C@@H]2C3(C)C)c(OC)c1` [HU308, {(1S,4S,5S)-4-[2,6-Dimethoxy-4-(2-methyloctan-2-yl)phenyl]-6,6-dimethylbicyclo[3.1.1]hept-2-en-2-yl}methanol, reference compound], the pH-dependent lipophilicity (logD) in series [1] (octanol/water, pH 7.4) turned out to be 4.29.

`CCCCCCC(C)(C)c1cc(OC)c(C2=C[C@H]3CC[C@]2(CO)C3(C)C)c(OC)c1` [HU910, {(1S,4R)-2-[2,6-dimethoxy-4-(2-methyloctan-2-yl)phenyl]-7,7-dimethylbicyclo[2.2.1]hept-2-en-1-yl}methanol, reference compound]: the “hCB1R cAMP EC50/hCB2R cAMP EC50” value in series [2] is listed as over 2500. Moreover, the “LogD (at pH 7.4)” value in series [1] is “out of range”. Broadly, the Ki is a measure of affinity in units of concentration, obtained from inhibition or displacement. The solubility (kinetic) is the concentration staying in solution when a stock, usually in DMSO, is diluted into the medium. As for `CNC(=O)[C@@H](NC(=O)c1cc(OCC2(C)COC2)c(C2CC2)cn1)C(C)(C)C` [RO6851228, 5-Cyclopropyl-N-[(2S)-3,3-dimethyl-1-(methylamino)-1-oxobutan-2-yl]-4-[(3-methyloxetan-3-yl)methoxy]pyridine-2-carboxamide], the Ki in series [3] was 1 nM. The kinetic solubility at 15 h in series [4] amounted to 174 ± 47 µg/mL (≈ 447 µM). In the case of `Cc1nc([C@](C)(CC2CC2)NC(=O)c2cc(OCC(F)(F)F)c(C3CC3)cn2)no1` [RO6871085, 5-Cyclopropyl-N-[(2S)-1-cyclopropyl-2-(5-methyl-1,2,4-oxadiazol-3-yl)propan-2-yl]-4-(2,2,2-trifluoroethoxy)pyridine-2-carboxamide], in series [3], the Ki is 6 nM. The compound further had a solubility (kinetic) at 15 h in series [4] of 4.2 ± 0.1 µg/mL (≈ 9.9 µM). `CC(C)(C)c1nc(N2CC[C@H](O)C2)c2nnn(Cc3nnnn3C3CC3)c2n1` [RO6871304, (3S)-1-{5-tert-butyl-3-[(1-cyclopropyl-1H-tetrazol-5-yl)methyl]-3H-[1,2, 3]triazolo[4,5-d]pyrimidin-7-yl}pyrrolidin-3-ol]: the “hCB1R cAMP EC50/hCB2R cAMP EC50” value in series [2] (functional selectivity) is >10,000.
